# Measurements reported in US20240182453A1, “NOVEL SUBSTITUTED PYRAZINE-CARBOXAMIDE DERIVATIVES” (Boehringer Ingelheim International GmbH, priority 2022, published 2024).
# Target: human metabotropic Glutamate 4 receptor (mGluR4) (Homo sapiens (Human), UniProt Q14833)
# Assay: Assay A: in vitro testing of mGluR4 potency (glutamate-induced cAMP lowering, HTRF cAMP)
# Assay type: cell-based
# Conditions: HEK293 cells overexpressing human mGluR4; 10 uM L-glutamic acid, 1 uM forskolin; compounds of the present invention
# Description: A. In Vitro Testing of mGluR4 Potency
# The in vitro activity of the compounds according to the invention may be investigated as follows:
# The HEK293 cell overexpressing the human metabotropic Glutamate 4 receptor are thawed at 37° C. and immediately diluted with cell culture medium. After centrifugation, the cell pellet is re-suspended in medium and then distributed from a stirred spinner flask into the wells of the assay plate. The plates are incubated for one hour at room temperature before they are incubated for 24 hours at 37° C./5% CO2. After washing the cells in the plate three times with 80 uL HBSS/HEPES buffer (10 uL buffer remained in the wells after washing), 5 uL per well of compounds diluted in HBSS/HEPES buffer containing 0.2% BSA (final concentration: 0.1%) and 1 mM IBMX (final concentration: 0.5 mM) are added to the wells of the assay plate. Thereafter 5 uL per well of L-Glutamic acid (final concentration: 10 uM), forskolin (final concentration: 1 uM) and 1 mM IBMX (final concentration: 0.5 mM) dissolved in HBSS/HEPES buffer containing 0.2% BSA (final concentration: 0.1%) are added to the assay plate (final DMSO concentration: 1%). Several wells of the assay plate are used either for the positive and the negative controls or for the cAMP standard curve. The assay plate is incubated for 30 minutes at room temperature. Then 5 ul per well of Anti-cAMP-Antibody-d2 solution and 5 ul per well of cAMP-Europium Cryptate dilution are added to all wells of the plate and the plate is incubated another 60 minutes light protected at room temperature. The emission at 615 nm and 665 nm (Excitation wavelength: 320 nm) are measured on the EnVision™ reader (Perkin Elmer). The ratio between the emission at 665 nm and 615 is calculated by the reader. The whole assay is performed in the dark or under green light.
# The cAMP standard is prepared by diluting the cAMP stock solution with HBSS/Hepes buffer: 5 μl/well of the cAMP dilutions (in HBSS/Hepes buffer containing 1 mM IBMX and 0.2% BSA—final concentration: 0.5 mM IBMX and 0.1% BSA) are added to 10 ul/well HBSS/Hepes buffer plus 5 ul/well 4% DMSO in HBSS/Hepes containing 0.2% BSA (final DMSO concentration: 1%—like in the wells containing compounds) in the wells of the assay plate. The final cAMP concentrations in the assay plate are: 0, 0.17, 0.69, 2.78, 11.1, 44.5, 178, and 712 nM (two wells/cAMP concentration).
# Each assay microtiter plate contained also wells with vehicle controls instead of compound as controls for L-Glutamic acid induced signal (negative control; 100% CTL; 10 uM L-Glutamic acid+1 uM forskolin+0.5 mM IBMX+1% DMSO) and wells with vehicle controls without L-Glutamic acid as controls for non-specific changes in signal (positive control; 0% CTL; 0 uM L-Glutamic acid+1 uM forskolin+0.5 mM IBMX+1% DMSO).
# The analysis of the data is performed by the calculation the ratio between the emission at 665 nm and the emission at 615 nm (Em665/Em615 ratio). Thereafter the signals of the compounds are normalized using the positive and negative controls by the following formula:
# PoC=100×((Signal Sample−Positive Control)/(Negative Control−Positive Control))
# Sequence of human metabotropic Glutamate 4 receptor (mGluR4) (Q14833 33-912): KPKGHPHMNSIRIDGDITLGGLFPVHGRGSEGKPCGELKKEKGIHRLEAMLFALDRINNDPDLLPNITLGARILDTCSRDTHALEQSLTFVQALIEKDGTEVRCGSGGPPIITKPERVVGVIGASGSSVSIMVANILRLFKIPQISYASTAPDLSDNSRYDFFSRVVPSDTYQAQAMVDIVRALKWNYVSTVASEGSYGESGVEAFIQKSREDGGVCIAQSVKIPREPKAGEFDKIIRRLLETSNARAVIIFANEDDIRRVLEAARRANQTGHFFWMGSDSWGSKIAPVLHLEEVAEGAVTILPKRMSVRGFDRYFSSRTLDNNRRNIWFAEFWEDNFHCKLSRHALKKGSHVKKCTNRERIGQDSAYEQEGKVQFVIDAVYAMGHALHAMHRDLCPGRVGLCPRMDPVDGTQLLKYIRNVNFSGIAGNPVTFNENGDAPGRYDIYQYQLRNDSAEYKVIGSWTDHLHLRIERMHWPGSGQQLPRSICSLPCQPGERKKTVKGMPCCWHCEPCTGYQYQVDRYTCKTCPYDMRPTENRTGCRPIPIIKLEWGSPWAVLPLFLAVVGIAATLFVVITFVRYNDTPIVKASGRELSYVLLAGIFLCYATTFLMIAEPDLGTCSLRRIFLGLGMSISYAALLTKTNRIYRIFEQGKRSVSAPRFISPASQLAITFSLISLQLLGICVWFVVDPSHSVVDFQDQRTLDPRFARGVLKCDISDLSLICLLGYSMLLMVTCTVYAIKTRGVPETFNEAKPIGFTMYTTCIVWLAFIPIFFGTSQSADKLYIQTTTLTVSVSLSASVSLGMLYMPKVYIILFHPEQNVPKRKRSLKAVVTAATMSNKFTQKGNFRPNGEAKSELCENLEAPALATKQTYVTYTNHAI
row,Molecule,IC50 [µM]
1,"5-(difluoromethyl)-N-[(1S)-1-(1-ethyl-5-fluoro-1H-1,3-benzodiazol-2-yl)-2-methylpropyl]pyrazine-2-carboxamide [Example 59]",0.004
2,"COCCn1c(C(NC(=O)c2cnc(C)cn2)C2CCCO2)nc2cc(C(F)(F)F)ccc21 (single isomer, unassigned) [Example 19-1, N-{[1-(2-methoxyethyl)-5-(trifluoromethyl)-1H-1,3-benzodiazol-2-yl](oxolan-2-yl)methyl}-5-methylpyrazine-2-carboxamide]",0.013
3,"COCCn1c([C@@H](NC(=O)c2cnc(C)cn2)[C@H]2CCCO2)nc2cc(C(F)(F)F)ccc21 (single isomer, unassigned) [Example 19]",0.003
4,"COCCn1c(C(NC(=O)c2cnc(C(F)F)cn2)C2CCOC2)nc2cc(F)ccc21 (single isomer, unassigned) [Example 48-2, 5-(difluoromethyl)-N-{[5-fluoro-1-(2-methoxyethyl)-1H-1,3-benzodiazol-2-yl](oxolan-3-yl)methyl} pyrazine-2-carboxamide]",0.06
5,"Cc1cnc(C(=O)N[C@H](c2nc3cc(C(F)(F)F)ccc3n2C)[C@H]2CCCO2)cn1 (single isomer, unassigned) [Example 56]",0.013
6,"COCCn1c(C(NC(=O)c2cnc(C)cn2)C2CCOC2)nc2cc(OC(F)(F)F)ccc21 (single isomer, unassigned) [Example 62-2, N-{[1-(2-methoxyethyl)-5-(trifluoromethoxy)-1H-1,3-benzodiazol-2-yl](oxolan-3-yl)methyl}-5-methylpyrazine-2-carboxamide]",0.028
7,"CCn1c(C(NC(=O)c2cnc(C)cn2)C2CCOC2)nc2cc(OC(F)(F)F)ccc21 (single isomer, unassigned) [Example 70-2, N-{[1-ethyl-5-(trifluoromethoxy)-1H-1,3-benzodiazol-2-yl](oxolan-3-yl)methyl}-5-methylpyrazine-2-carboxamide]",0.02
8,"CCn1c([C@@H](NC(=O)c2cnc(C)cn2)[C@H]2CCOC2)nc2cc(OC(F)(F)F)ccc21 (single isomer, unassigned) [Example 70]",0.012
9,"COCCn1c(C(NC(=O)c2cnc(C)cn2)C2CCCO2)nc2cc(C(F)(F)F)ccc21 (single isomer, unassigned) [Example 71-2, N-{[1-(2-methoxyethyl)-5-(trifluoromethyl)-1H-1,3-benzodiazol-2-yl](oxolan-2-yl)methyl}-5-methylpyrazine-2-carboxamide]",0.003
10,"COCCn1c([C@@H](NC(=O)c2cnc(C)cn2)[C@H]2CCCO2)nc2cc(C(F)(F)F)ccc21 (single isomer, unassigned) [Example 71]",0.013
11,"Cc1cnc(C(=O)N[C@H](c2nc3cc(C(F)(F)F)ccc3n2C)[C@H]2CCCO2)cn1 (single isomer, unassigned) [Example 75]",0.019
12,"Cc1cnc(C(=O)NC(c2nc3cc(OC(F)(F)F)ccc3n2C)C2CCCOC2)cn1 (single isomer, unassigned) [Example 78-2, 5-methyl-N-{[1-methyl-5-(trifluoromethoxy)-1H-1,3-benzodiazol-2-yl](oxan-3-yl)methyl]pyrazine-2-carboxamide]",0.025
13,"Cc1cnc(C(=O)NC(c2nc3cc(C(F)(F)F)ccc3n2C)C2CCCOC2)cn1 (single isomer, unassigned) [Example 82-2, 5-methyl-N-{[1-methyl-5-(trifluoromethyl)-1H-1,3-benzodiazol-2-yl](oxan-3-yl)methyl}pyrazine-2-carboxamide]",0.032
14,"COCCn1c(C(NC(=O)c2cnc(C)cn2)C2CCOC2)nc2cc(C(F)(F)F)ccc21 (single isomer, unassigned) [Example 87-1, N-{[1-(2-methoxyethyl)-5-(trifluoromethyl)-1H-1,3-benzodiazol-2-yl](oxolan-3-yl)methyl}-5-methylpyrazine-2-carboxamide]",0.021
15,"COCCn1c(C(NC(=O)c2cnc(C)cn2)C2CCOC2)nc2cc(Cl)ccc21 (single isomer, unassigned) [Example 91-1, N-{[5-chloro-1-(2-methoxyethyl)-1H-1,3-benzodiazol-2-yl](oxolan-3-yl)methyl}-5-methylpyrazine-2-carboxamide]",0.032
16,"CCn1c(C(NC(=O)c2cnc(C)cn2)C2CCOC2)nc2cc(OC(F)(F)F)ccc21 (single isomer, unassigned) [Example 97-1, N-{[1-ethyl-5-(trifluoromethoxy)-1H-1,3-benzodiazol-2-yl](oxolan-3-yl)methyl}-5-methylpyrazine-2-carboxamide]",0.012
17,"COCCn1c(C(NC(=O)c2cnc(C)cn2)C2CCCOC2)nc2cc(C(F)(F)F)ccc21 (single isomer, unassigned) [Example 103-1, N-{[1-(2-methoxyethyl)-5-(trifluoromethyl)-1H-1,3-benzodiazol-2-yl](oxan-3-yl)methyl}-5-methylpyrazine-2-carboxamide]",0.022
18,"CCn1c(C(NC(=O)c2cnc(C)cn2)C2CCOC2)nc2cc(C(F)(F)F)ccc21 (single isomer, unassigned) [Example 139, N-{[1-ethyl-5-(trifluoromethyl)-1H-1,3-benzodiazol-2-yl](oxolan-3-yl)methyl}-5-methylpyrazine-2-carboxamide]",0.011
19,"Cc1cnc(C(=O)NC(c2nc3cc(C(F)(F)F)ccc3n2CC(F)F)C2CCOC2)cn1 (single isomer, unassigned) [Example 141, N-{[1-(2,2-difluoroethyl)-5-(trifluoromethyl)-1H-1,3-benzodiazol-2-yl](oxolan-3-yl)methyl}-5-methylpyrazine-2-carboxamide]",0.031
20,"CCn1c(C(NC(=O)c2cnc(C)cn2)C2CCOC2)nc2cc(F)ccc21 (single isomer, unassigned) [Example 143, N-[(1-ethyl-5-fluoro-1H-1,3-benzodiazol-2-yl)(oxolan-3-yl)methyl]-5-methylpyrazine-2-carboxamide]",0.066
21,"Cc1cnc(C(=O)NC(c2nc3ccc(C(F)(F)F)cc3n2CC(F)F)C2CCOC2)cn1 (single isomer, unassigned) [Example 146, N-{[1-(2,2-difluoroethyl)-6-(trifluoromethyl)-1H-1,3-benzodiazol-2-yl](oxolan-3-yl)methyl}-5-methylpyrazine-2-carboxamid]",0.016
22,"CCn1c(C(NC(=O)c2cnc(C)cn2)C2CCOC2)nc2ccc(C(F)(F)F)cc21 (single isomer, unassigned) [Example 147, N-{[1-ethyl-6-(trifluoromethyl)-1H-1,3-benzodiazol-2-yl](oxolan-3-yl)methyl}-5-methylpyrazine-2-carboxamide]",0.011
23,"CCn1c(C(NC(=O)c2cnc(C)cn2)C2CCOC2)nc2ccc(C(F)(F)F)cc21 (single isomer, unassigned) [Example 148, N-{[1-ethyl-6-(trifluoromethyl)-1H-1,3-benzodiazol-2-yl](oxolan-3-yl)methyl}-5-methylpyrazine-2-carboxamide]",0.014
24,"CCn1c(C(NC(=O)c2cnc(C)cn2)C2CCOC2)nc2cc(F)c(F)cc21 (single isomer, unassigned) [Example 159, N-[(1-ethyl-5,6-difluoro-1H-1,3-benzodiazol-2-yl)(oxolan-3-yl)methyl]-5-methylpyrazine-2-carboxamide]",0.03
25,"CCn1c(C(NC(=O)c2cnc(C)cn2)C2CCOC2)nc2cc(F)c(F)cc21 (single isomer, unassigned) [Example 160, N-[(1-ethyl-5,6-difluoro-1H-1,3-benzodiazol-2-yl)(oxolan-3-yl)methyl]-5-methylpyrazine-2-carboxamide]",0.047
26,"CCn1c(C(NC(=O)c2cnc(C)cn2)C2CCOC2)nc2cc(Cl)ccc21 (single isomer, unassigned) [Example 161, N-[(5-chloro-1-ethyl-1H-1,3-benzodiazol-2-yl)(oxolan-3-yl)methyl]-5-methylpyrazine-2-carboxamide]",0.014
